Values of other authors, collected in paper PMC7914841, “Systemic Delivery of hGhrelin Derivative by Lyophilizate for Dry Powder Inhalation System in Monkeys” (Pharmaceutics, 2021).
Where no end group is shown, it is not given here. The star is where a group is joined. Octanoyl = CCCCCCCC(=O)*

Tested on: growth hormone (GH) release
Settings: healthy humans, intravenously injected

ghrelin: peptide hormone of 28 amino acids, O-n-octanoylated at the 3rd serine residue (GSS(Octanoyl)FLSPEHQRVQQRKESKKPPAKLQPR; UniProt Q9UBU3 24-51, looked up)
ratio of AUC of GH, 5 µg/kg vs 1 µg/kg: 1.3–1.6 times
